{"source": "patent US7314616B1", "about": "“Additive containing an anti-fungal amount of a salt of formic acid” (priority 2003, dated 2008)", "data": [{"test_system": "fungi spores", "test": "inhibitory effect on the growth of fungi spores", "type": "cell-based", "values": [{"molecule": "COC1=CC(=O)O[C@@H](CCc2ccc3c(c2)OCO3)C1", "note": "[dihydromethysticin]", "inhibitory effect on the growth of fungi spores": "exhibit inhibitory effect"}, {"molecule": "COC1=CC(=O)O[C@@H](CCc2ccccc2)C1", "note": "[diydrokawain]", "inhibitory effect on the growth of fungi spores": "exhibit inhibitory effect"}, {"molecule": "COC1=CC(=O)O[C@@H](/C=C/c2ccccc2)C1", "note": "[kawain]", "inhibitory effect on the growth of fungi spores": "exhibit inhibitory effect"}]}]}
